US20240141291A1, “FUNCTIONAL BRAIN REGION-SPECIFIC NEURAL SPHEROIDS AND METHODS OF USE” (THE UNITED STATES OF AMERICA, AS REPRESENTED BY THE …, priority 2021, published 2024)
Values joined by “and” are separate entries in the source; they are usually repeats but may differ in a detail not shown here. Equal values may be shown once. “Also recorded” adds a separate entry of the source.

Experiments:
Assay type in all cases: cell-based, human
PFC-like spheroids [1] = experiment: FLIPR calcium activity with Cal6 dye, control compounds / DAMGO / AD compounds (Example 3); settings: for effect on peak count and peak spacing: 10 μM DAMGO, recording 30-min later, then naloxone
Description: (§1) Viruses and dyes: To assess calcium activity, the calcium dye, Cal6 (Molecular Devices), and genetically encoded calcium indicator, GCaMP6f (Addgene, cat #100836-AAV9) were used. Cal6 was used according to manufacturer's instructions and 10 mL of maintenance media was added to each vial. Two hours before activity was recorded, half of the spheroid media was exchanged for media with Cal6. The plates were covered in foil and placed in the incubator at 37° C. during the 2-hour (hr) incubation period. Since all viruses used were adeno-associated viruses (AAV), they were added to the media on day 7 to allow for 2-weeks expression prior to recording or testing. All viruses were added to the media at 2e5 multiplicity of infection (MOI). GCaMP6f infection occurred via an adeno-associated virus serotype 9 (AAV9) expressed under the CAG promoter for expression in both neurons and astrocytes. Designer receptors exclusively activated by designer drugs (DREADDs) viruses were used to stimulate and inhibit neuronal activity within spheroids. Both viruses were retrograde AAVs expressed under the human Synapsin promoter for expression in neurons and fused with an mCherry fluorophore. The DREADDs viruses either inserted the designer receptor hM4D(Gi), an inhibitory G-protein coupled receptor, or hM3D(Gq), a stimulatory G-protein coupled receptor. Clozapine-N-oxide (CNO, Tocris cat #4936) was suspended in dimethyl sulfoxide (DMSO) and used as the designer drug to activate the DREADDs viruses. CNO was tested at 1 and 10 μM, with data reported from the 1 μM concentration.
(§2) Fluorescent Imaging plate Reader (FLIPR): The FLIPR Penta (Molecular Devices) was used to assess calcium fluorescence across the 384-well plate simultaneously and to observe changes after treatment with compounds. The evening before calcium activity was measured, plates were sealed with parafilm and centrifuged at 1485×g for 2-min to get spheroids to the bottom of the well in a centered position. On the day of recording, the plate used for recording was placed in the read plate position inside of the FLIPR following the 2-hour Cal6 incubation at 37° C. Standard filter sets were used for Cal6 imaging with excitation set at 470-495 and emission at 515-575 nm. Fluorescent image reads were taken every 0.6 seconds for all plates, with exposure time of 0.03 and 50% excitation intensity. Recordings from the initial seven plates consisted of 1000 reads and were 10-min recordings with 2.5 gain, while the final two plates consisted of 500 reads (5-min recordings) with a gain of 2. Baseline recordings were taken across all plates and, if applicable, more recordings were obtained 1-, 30-, 60-, and/or 90-min after compound treatment. In between recordings, plates were wrapped in foil and placed back in the incubator at 37° C.
DAMGO was reconstituted in water at a 1 mM concentration and diluted in media to 20 µM such that spheroids would be treated with a final concentration of 10 μM after the half media exchange. Two aspects of OUD were modeled, chronic treatment along with opioid withdrawal. For spheroids subjected to chronic DAMGO treatment, 20 μM DAMGO in maintenance media was added via half media exchange beginning on day 10, with treatments occurring every other day for 10 days, giving a total of five treatments.
(§3) 384 Pin Tool: A 384 well pin tool (Rexroth) was used to transfer compounds simultaneously to the spheroid plate. Prior to compound transfer, the pin tool went through four wash cycles where pins were rinsed with dimethyl sulfoxide (DMSO), followed by methanol, then deionized (DI) water, to ensure the pins were clean. Compound transfer via the 384 well pin tool occurred after the baseline recordings with the fluorescent imaging plate reader (FLIPR). Here, 60 nL of compound suspended in DMSO was transferred to 60 µL of media in each well, diluting the compounds by 1000-fold and giving a final DMSO concentration of 0.1%.

VTA-like spheroids [2] = experiment: FLIPR calcium activity profiling, compound addition (Examples 1-2); settings: FLIPR recordings 1-, 30-, 70-min after compound (t1, t30, t70)
Description: (§4) To examine neuronal activity changes as a response to compound treatment, calcium activity was assessed using a Fluorescent Imaging Plate Reader (FLIPR) Penta (Molecular Devices). FLIPR Calcium 6 Assay kits were purchased from Molecular Devices (PN: R8190). On day of activity profiling, 96-well or 384-well ULA round bottom (black sides, clear bottom) plates containing spheroids were removed from incubator. Fresh FLIPR Calcium 6 dye was prepared by diluting each vial in 10 ml of freshly prepared, phenol-free complete spheroid maturation media and vortexed for 2 minutes. Half of the media was removed from each well (45 μl from 384-well plate wells, 100 ul from 96-well plate wells) and replaced with equal amounts freshly prepared FLIPR Calcium 6 dye, followed by a 2-hour incubation in the dark in a 37 C, 5% CO2 incubator. After 2-hours, plates were removed and kept at room temperature for 10 minutes, then imaged and calcium activity read using the Molecular Devices FLIPR Penta High-Throughput Cellular Screening System. The FLIPR incubator stage was pre-warmed to 37° C. approximately 30 minutes prior to imaging. Standard filter sets were used for Cal6 imaging (excitation 470-495 and emission 515-575 nm). FLIPR recordings were obtained with the camera in normal mode, and settings included: gain was set to 2.5, exposure time to 0.03 seconds, and excitation intensity to 50%. Fluorescent image reads were taken every 0.6 seconds for a total of 1000 reads over a total run time of 10 minutes. Four recordings total were captured: baseline activity, 1-min after compound treatment, 30- and 70-min after compound treatment.
(§5) After baseline activity, cell plates were removed from the FLIPR and transferred to a 384-well pin tool instrument. Prior to compound addition, the pin tool was subjected to 4 wash cycles exposing the pins to water, methanol, and DMSO each time. Compounds, including either “QC compounds” (compounds with known mechanism of action, listed in results) or the mu opioid receptor selective-agonist DAMGO, were transferred from a compound source plate to the 384-well spheroid plate. Immediately after compound transfer, the cell plate was placed back in the FLIPR for the recording that was 1-min after compound transfer to begin. After this 10-min recording, another recording was captured 30-min after compounds were transferred. After the 30-min recording, the plate was again removed from the FLIPR and transferred to the pin tool instrument. During this phase of compound transfer, naloxone was transferred to wells that received DAMGO during the first compound transfer. Following this second compound transfer, the cell plate was placed back in the FLIPR and a final recording was obtained 30-min later, and 70-min after the initial compound transfer.
(§6) The FLIPR software ScreenWorks PeakPro 2.0 was used for the initial analysis of calcium activity using automated peak detection settings. With these settings, average peak statistics over each 10-min recording for each well were exported from PeakPro to Microsoft Excel. ScreenWorks Peak Pro 2.0 software was used to extract 17 activity features describing different aspects of calcium activity profiles. These included peak amplitude (PkA), peak amplitude standard deviation (PkASD), peak count (PkCt), peak rate (measured as peaks per minute, PpM), peak rate SD, peak spacing (PkSp), peak spacing SD (PkSpSD), peak spacing regularity, area under the curve (AUC), AUC SD, peak rise slope, peak rise slope SD, peak rise time (PkRt), peak ride time SD (PkRtSD), peak decay slope, peak decay slope SD, peak decay time (PkDt), and peak decay time SD (PkDtSD). To assess variability of these peak parameters, percent coefficients of variance (CV) were calculated by dividing the standard deviation/mean and multiplying by 100 for each designer spheroid type, and those with % CV's […] 20% were removed from future analysis. […]

PFC-like spheroids [3] = experiment: as above; settings: FLIPR recordings 1-, 30-, 70-min after compound (t1, t30, t70)
Description: as §4, §5, §6

A53T VTA-like spheroids = experiment: Parkinson's Disease model, FLIPR calcium activity after compound treatment; settings: 90-min after treatment; for reversal of A53T-induced deficits (peak count, peak width): Ropinirole 1, 3 and 10 μM
Description: as §2
as §3, with “0.1%. Immediately after compound transfer, the spheroid plate was either placed back inside of the FLIPR for a recording 1-min after compound treatment or placed back in the incubator if post-treatment recording was >30-min after compound transfer.” for “0.1%.”
Calcium Activity Analysis: Calcium oscillatory peak detection data from FLIPR recordings was obtained through ScreenWorks 5.1 (Molecular Devices). Initial peak detection analysis occurred within ScreenWorks 5.1 via the PeakPro 2.0 module. Here, all parameters were set to be the same for all wells per plate. The event polarity was always set to positive and search vector length always set to 11. The baseline, trigger level, which is automatically set to 10% above the baseline, and dynamic threshold, which is the threshold for peak detection were automatically identified by the PeakPro 2.0 module. Wells were manually checked to ensure these parameters were accurately identified prior to analysis. After analysis, data from 18 peak parameters (mean peak amplitude, peak amplitude standard deviation (SD), peak count, mean peak rate, peak rate SD, peak spacing, peaking spacing SD, mean number of EAD-like peaks per well, CTD @ 50% (peak width at 50% amplitude), CTD @ 90% (peak width at 90% amplitude), rise slope, rise slope SD, mean peak rise time, peak rise time SD, decay slope, decay slope SD, mean peak decay time, and peak decay time SD) was exported to a STATALL file that could be converted to a Microsoft Excel spreadsheet. There, percent coefficient of variance (% CV) was calculated within each plate to measure how variable each parameter exported was. […] All data was normalized to the average of DMSO-treated control wells within each plate. […] Bar plots with individual values are reported as mean±SEM.

VTA-like spheroids [4] = experiment: FLIPR calcium activity with Cal6 dye, control compounds / DAMGO (Example 3); settings: VTA-like spheroids, chronic DAMGO pre-treatment
Description: as §1, §2
DAMGO was reconstituted in water at a 1 mM concentration and diluted in media to 20 µM such that spheroids would be treated with a final concentration of 10 μM after the half media exchange. Two aspects of OUD were modeled, chronic treatment along with opioid withdrawal. […]
384 Pin Tool: A 384 well pin tool (Rexroth) was used to transfer compounds simultaneously to the spheroid plate. […] Compound transfer via the 384 well pin tool occurred after the baseline recordings with the fluorescent imaging plate reader (FLIPR). […]

Question: `CCN(C)C(=O)Oc1cccc([C@H](C)N(C)C)c1` [Rivastigmine] was tested. Which “effect on peak count and spacing in Wt PFC-like spheroids” value (PFC-like spheroids [1]; Wt PFC-like spheroids, 90 min after treatment) did it give?
Answer: Its value is “differences were observed in all groups except Rivastigmine”.

Question: For `NC(CCCP(=O)(O)O)C(=O)O` (stereo not shown) [AP5], which “effect on calcium activity peak parameters compared to DMSO controls” value (VTA-like spheroids [2]) is on record?
Answer: Its value is “did not impact calcium activity”.

Question: And the “effect on calcium activity peak parameters compared to DMSO controls” value (PFC-like spheroids [3])?
Answer: Its value is “did not impact calcium activity”.

Question: Which “reversal of A53T-induced deficits (peak count, peak width)” value (shortened to “reversal of A53T-induced deficits”) (A53T VTA-like spheroids) does the source give for `NC12CC3CC(CC(C3)C1)C2` [Amantadine] here?
Answer: Its value is “only Ropinirole was found to reverse this 90-min after treatment”.

Question: How did the “effect on calcium activity peak parameters compared to DMSO controls” value (VTA-like spheroids [2]) turn out when `Nc1ccncc1` [4-AP, 4-aminopyradine] was run?
Answer: Its value is “did not have any impact on PkCt, PkA, PpM, or PkSp at t1, t30, or t70; also recorded: significantly reduced PkDt at t1; also recorded: trend toward statistical significance for increasing the decay slope”.

Question: And the “effect on calcium activity peak parameters compared to DMSO controls” value (PFC-like spheroids [3])?
Answer: The value was “significantly increased PkCt 1-min after exposure; also recorded: For the t30 recording, there was a significant increase in peaks per minute (PpM) and the decay slope; also recorded: Significant increases in PkCt and PpM as well as a reduction in PkSp resulted from 4-AP 70-min after exposure”.

Question: For `C=CCN1CC[C@]23c4c5ccc(O)c4O[C@H]2C(=O)CC[C@@]3(O)[C@H]1C5` [naloxone], which “reversal of deficits induced by chronic opioid treatment” value (VTA-like spheroids [4]) is on record?
Answer: The value was “reverses deficits induced by chronic opioid treatment in PFC-like but not VTA-like spheroids”.

Question: And the “effect on peak count and peak spacing” value (PFC-like spheroids [1]; PFC-like chronic DAMGO-treated spheroids)?
Answer: Its value is “those treated with naloxone no longer showed significant differences in these peak parameters compared to DMSO-treated controls; also recorded: reverses deficits induced by chronic opioid treatment in PFC-like but not VTA-like spheroids”.

Question: What about the “effect on peak count and peak spacing” value (PFC-like spheroids [1]; PFC-like control spheroids) of the same compound?
Answer: The value was “reversed deficits in peak count and spacing in acute DAMGO-treated control spheroids”.

Question: How did the “reversal of A53T-induced deficits” value (A53T VTA-like spheroids) turn out when `C#CCN[C@@H]1CCc2ccccc21` [Rasagiline] was run?
Answer: Its value is “only Ropinirole was found to reverse this 90-min after treatment”.

Question: Which results are given for `N#Cc1cc2[nH]c(=O)c(=O)[nH]c2cc1[N+](=O)[O-]` [CNQX]?
Answer: effect on calcium activity peak parameters compared to DMSO controls (VTA-like spheroids [2]): total inhibition of calcium activity during the t1 recording and 30-min after CNQX treatment, PkCt and PpM were significantly increased while PkA, PkSp, and PkDt were all still reduced and had no impact on calcium activity in VTA-like spheroids during the t70 recording; effect on calcium activity peak parameters compared to DMSO controls (PFC-like spheroids [3]): total inhibition of calcium activity that lasted throughout the entire recording period; functional response (calcium activity peak parameters) to control compound (PFC-like spheroids [1]; PFC-like spheroids, recordings 1-, 30-, 60-min after treatment): inhibited all activity in PFC-like spheroids for all three recordings (1-, 30-, and 60-min); also recorded: total inhibition that lasted throughout the 1-hr period

Question: With `N[C@@H](Cc1ccc(O)c(O)c1)C(=O)O` [L-Dopa] as the compound, how does the “reversal of A53T-induced deficits” value (A53T VTA-like spheroids) read?
Answer: Its value is “only Ropinirole was found to reverse this 90-min after treatment”.

Question: For `Cc1ccc(C(=O)c2cc(O)c(O)c([N+](=O)[O-])c2)cc1` [Tolcapone], which “reversal of A53T-induced deficits” value (A53T VTA-like spheroids) is on record?
Answer: Its value is “only Ropinirole was found to reverse this 90-min after treatment”.

Question: Which “effect on subpeak count” value (A53T VTA-like spheroids) does the source give for `CCCN(CCC)CCc1cccc2c1CC(=O)N2` [Ropinirole] here?
Answer: Its value is 3 and 10 μM, but not 1 μM, Ropinirole significantly reduced subpeak count.

Question: What about the “reversal of A53T-induced deficits” value (A53T VTA-like spheroids) of the same compound?
Answer: The value was “significantly reduce peak count and increase peak width to the level that they were no longer significantly different from Wt DMSO-treated control spheroids; also recorded: restored deficits across all 3 peak measures”.

Question: `CN1[C@@H]2CC[C@H]1C[C@@H](OC(c1ccccc1)c1ccccc1)C2` [Benztropine] was tested. Which “reversal of A53T-induced deficits” value (A53T VTA-like spheroids) did it give?
Answer: The value was “only Ropinirole was found to reverse this 90-min after treatment”.

Question: Which “reversal of A53T-induced deficits” value (A53T VTA-like spheroids) does the source give for `OC(CCN1CCCCC1)(c1ccccc1)C1CCCCC1` (stereo not shown) [Trihexyphenidyl] here?
Answer: The value was “only Ropinirole was found to reverse this 90-min after treatment”.
